Laboratory results taken from ChEMBL document CHEMBL4507273 (2021).
pKi: −log10 of the molar value.

Legend:
[1] = test system: Tyrosine-protein kinase ABL1 (Homo sapiens), P00519 [T315I]; conditions: Compound concentration 1000.0 nM
[2] = target: Non-receptor tyrosine-protein kinase TYK2 (Homo sapiens) (UniProt P29597); conditions: Compound concentration 1000.0 nM
[3] = target: Ephrin type-A receptor 3 (Homo sapiens) (UniProt P29320); conditions: Compound concentration 1000.0 nM
[4] = target: G protein-coupled receptor kinase 4 (Homo sapiens) (UniProt P32298); conditions: Compound concentration 1000.0 nM
[5] = target: Mitogen-activated protein kinase kinase kinase 1 (Homo sapiens) (UniProt Q13233); conditions: Compound concentration 1000.0 nM
Sequence of Mitogen-activated protein kinase kinase kinase 1 (Homo sapiens) (Q13233 whole entry): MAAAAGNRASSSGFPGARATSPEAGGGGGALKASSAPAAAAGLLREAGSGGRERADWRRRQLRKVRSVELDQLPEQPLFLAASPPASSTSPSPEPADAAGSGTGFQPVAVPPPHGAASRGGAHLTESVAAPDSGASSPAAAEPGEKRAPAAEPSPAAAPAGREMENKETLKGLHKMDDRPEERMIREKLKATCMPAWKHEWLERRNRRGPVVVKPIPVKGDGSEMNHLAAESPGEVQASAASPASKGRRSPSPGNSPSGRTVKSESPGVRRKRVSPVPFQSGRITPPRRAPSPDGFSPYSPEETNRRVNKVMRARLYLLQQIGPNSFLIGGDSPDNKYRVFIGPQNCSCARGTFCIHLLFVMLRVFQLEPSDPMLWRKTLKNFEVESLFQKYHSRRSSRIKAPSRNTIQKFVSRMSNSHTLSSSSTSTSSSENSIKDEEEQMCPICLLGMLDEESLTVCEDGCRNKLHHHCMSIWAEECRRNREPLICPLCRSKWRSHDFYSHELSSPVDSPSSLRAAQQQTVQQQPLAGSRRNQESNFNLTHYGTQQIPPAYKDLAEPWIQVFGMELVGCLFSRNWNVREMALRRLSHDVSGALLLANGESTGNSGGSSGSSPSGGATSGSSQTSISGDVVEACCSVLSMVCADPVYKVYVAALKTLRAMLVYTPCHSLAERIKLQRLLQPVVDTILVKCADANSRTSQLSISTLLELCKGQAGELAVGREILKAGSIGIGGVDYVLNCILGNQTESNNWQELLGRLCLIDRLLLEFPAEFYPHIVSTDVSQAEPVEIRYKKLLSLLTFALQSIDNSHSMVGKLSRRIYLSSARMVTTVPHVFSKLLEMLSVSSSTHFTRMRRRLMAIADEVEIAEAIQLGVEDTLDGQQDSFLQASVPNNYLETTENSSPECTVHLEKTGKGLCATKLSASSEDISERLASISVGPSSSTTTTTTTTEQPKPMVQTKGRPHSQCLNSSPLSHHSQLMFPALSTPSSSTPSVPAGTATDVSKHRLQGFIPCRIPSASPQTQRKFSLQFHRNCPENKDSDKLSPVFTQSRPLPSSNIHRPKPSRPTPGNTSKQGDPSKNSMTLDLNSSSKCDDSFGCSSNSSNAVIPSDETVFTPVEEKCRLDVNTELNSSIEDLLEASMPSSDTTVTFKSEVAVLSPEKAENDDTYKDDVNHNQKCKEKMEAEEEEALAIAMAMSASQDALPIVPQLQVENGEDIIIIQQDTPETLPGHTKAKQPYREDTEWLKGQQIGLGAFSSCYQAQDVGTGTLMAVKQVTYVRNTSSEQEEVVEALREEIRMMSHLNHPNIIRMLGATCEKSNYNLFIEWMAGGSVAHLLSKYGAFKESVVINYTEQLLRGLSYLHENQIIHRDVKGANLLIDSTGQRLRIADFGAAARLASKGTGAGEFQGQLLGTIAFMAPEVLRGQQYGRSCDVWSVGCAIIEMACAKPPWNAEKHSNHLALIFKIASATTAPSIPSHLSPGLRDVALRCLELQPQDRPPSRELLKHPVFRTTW

[6] = target: Serine/threonine-protein kinase WNK3 (Homo sapiens) (UniProt Q9BYP7); conditions: Compound concentration 1000.0 nM
[7] = target: LIM domain kinase 2 (Homo sapiens) (UniProt P53671); conditions: Compound concentration 1000.0 nM
[8] = target: Phosphatidylinositol 3-kinase C2 domain-containing subunit gamma (Homo sapiens) (UniProt O75747); conditions: Compound concentration 1000.0 nM
[9] = target: Casein kinase II subunit alpha' (Homo sapiens) (UniProt P19784); conditions: Compound concentration 1000.0 nM
[10] = target: Mitogen-activated protein kinase 15 (Homo sapiens) (UniProt Q8TD08); conditions: Compound concentration 1000.0 nM
[11] = target: Beta-adrenergic receptor kinase 1 (Homo sapiens) (UniProt P25098); conditions: Compound concentration 1000.0 nM
[12] = target: Kappa-type opioid receptor (Homo sapiens, UniProt P41145); conditions: Compound concentration 10.0 uM
[13] = test system: Mast/stem cell growth factor receptor Kit (Homo sapiens), P10721 [A829P]; conditions: Compound concentration 1000.0 nM
[14] = target: Serine/threonine-protein kinase Chk1 (Homo sapiens) (UniProt O14757); conditions: Compound concentration 1000.0 nM
[15] = target: Mitogen-activated protein kinase kinase kinase 10 (Homo sapiens) (UniProt Q02779); conditions: Compound concentration 1000.0 nM
Sequence of Mitogen-activated protein kinase kinase kinase 10 (Homo sapiens) (Q02779 whole entry, looked up): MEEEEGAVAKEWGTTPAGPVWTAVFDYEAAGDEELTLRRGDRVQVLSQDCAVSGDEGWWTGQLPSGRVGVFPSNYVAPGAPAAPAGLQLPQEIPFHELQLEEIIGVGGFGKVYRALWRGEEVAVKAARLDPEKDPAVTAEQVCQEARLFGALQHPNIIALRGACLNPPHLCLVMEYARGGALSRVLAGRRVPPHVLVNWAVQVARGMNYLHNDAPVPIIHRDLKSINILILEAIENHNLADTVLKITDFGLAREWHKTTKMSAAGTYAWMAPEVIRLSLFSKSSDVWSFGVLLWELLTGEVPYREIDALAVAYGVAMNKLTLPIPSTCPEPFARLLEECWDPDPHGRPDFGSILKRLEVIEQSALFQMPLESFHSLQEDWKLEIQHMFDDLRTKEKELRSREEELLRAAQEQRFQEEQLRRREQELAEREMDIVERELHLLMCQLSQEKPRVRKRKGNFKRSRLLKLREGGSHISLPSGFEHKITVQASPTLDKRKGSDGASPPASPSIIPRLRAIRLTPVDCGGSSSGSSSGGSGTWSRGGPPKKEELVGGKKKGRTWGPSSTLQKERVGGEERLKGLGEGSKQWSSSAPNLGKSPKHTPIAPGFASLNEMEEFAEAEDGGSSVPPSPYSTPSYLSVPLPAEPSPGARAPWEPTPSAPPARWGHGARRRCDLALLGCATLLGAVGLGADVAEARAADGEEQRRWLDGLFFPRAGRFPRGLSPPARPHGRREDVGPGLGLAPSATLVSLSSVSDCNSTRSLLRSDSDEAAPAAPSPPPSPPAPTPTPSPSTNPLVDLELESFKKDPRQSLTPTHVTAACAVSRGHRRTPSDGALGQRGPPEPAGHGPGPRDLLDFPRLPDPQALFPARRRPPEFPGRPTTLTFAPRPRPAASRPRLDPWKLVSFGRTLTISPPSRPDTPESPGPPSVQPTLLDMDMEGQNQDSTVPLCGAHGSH

[16] = target: Serine/threonine-protein kinase 4 (Homo sapiens) (UniProt Q13043); conditions: Compound concentration 1000.0 nM
D(3) dopamine receptor = D(3) dopamine receptor (Homo sapiens, UniProt P35462); assay: GPCRScan assay: inhibition of D3; set-up: radioligand conc. used [nm] 0.5 – 1.8, parental cells HEKT
[17] = target: Beta-2 adrenergic receptor (Homo sapiens) (UniProt P07550); conditions: Compound concentration 10.0 uM
[18] = target: Eukaryotic translation initiation factor 2-alpha kinase 1 (Homo sapiens) (UniProt Q9BQI3); conditions: Compound concentration 1000.0 nM
[19] = test system: Receptor-type tyrosine-protein kinase FLT3 (Homo sapiens), P36888 [D835H]; conditions: Compound concentration 1000.0 nM
[20] = test system: Epidermal growth factor receptor (Homo sapiens), P00533 [T790M]; conditions: Compound concentration 1000.0 nM
[21] = target: Ribosomal protein S6 kinase alpha-6 (Homo sapiens) (UniProt Q9UK32); conditions: Compound concentration 1000.0 nM
[22] = target: Phosphorylase b kinase regulatory subunit alpha, liver isoform (Homo sapiens) (UniProt P46019); conditions: Compound concentration 1000.0 nM
[23] = target: Serine/threonine-protein kinase MRCK gamma (Homo sapiens) (UniProt Q6DT37); conditions: Compound concentration 1000.0 nM
[24] = target: Phosphatidylinositol 4-phosphate 5-kinase type-1 gamma (Homo sapiens) (UniProt O60331); conditions: Compound concentration 1000.0 nM
[25] = target: Tyrosine-protein kinase JAK1 (Homo sapiens) (UniProt P23458); conditions: Compound concentration 1000.0 nM
[26] = target: Megakaryocyte-associated tyrosine-protein kinase (Homo sapiens) (UniProt P42679); conditions: Compound concentration 1000.0 nM
[27] = target: Serine/threonine-protein kinase BRSK1 (Homo sapiens) (UniProt Q8TDC3); conditions: Compound concentration 1000.0 nM
Sequence of Serine/threonine-protein kinase BRSK1 (Homo sapiens) (Q8TDC3 whole entry): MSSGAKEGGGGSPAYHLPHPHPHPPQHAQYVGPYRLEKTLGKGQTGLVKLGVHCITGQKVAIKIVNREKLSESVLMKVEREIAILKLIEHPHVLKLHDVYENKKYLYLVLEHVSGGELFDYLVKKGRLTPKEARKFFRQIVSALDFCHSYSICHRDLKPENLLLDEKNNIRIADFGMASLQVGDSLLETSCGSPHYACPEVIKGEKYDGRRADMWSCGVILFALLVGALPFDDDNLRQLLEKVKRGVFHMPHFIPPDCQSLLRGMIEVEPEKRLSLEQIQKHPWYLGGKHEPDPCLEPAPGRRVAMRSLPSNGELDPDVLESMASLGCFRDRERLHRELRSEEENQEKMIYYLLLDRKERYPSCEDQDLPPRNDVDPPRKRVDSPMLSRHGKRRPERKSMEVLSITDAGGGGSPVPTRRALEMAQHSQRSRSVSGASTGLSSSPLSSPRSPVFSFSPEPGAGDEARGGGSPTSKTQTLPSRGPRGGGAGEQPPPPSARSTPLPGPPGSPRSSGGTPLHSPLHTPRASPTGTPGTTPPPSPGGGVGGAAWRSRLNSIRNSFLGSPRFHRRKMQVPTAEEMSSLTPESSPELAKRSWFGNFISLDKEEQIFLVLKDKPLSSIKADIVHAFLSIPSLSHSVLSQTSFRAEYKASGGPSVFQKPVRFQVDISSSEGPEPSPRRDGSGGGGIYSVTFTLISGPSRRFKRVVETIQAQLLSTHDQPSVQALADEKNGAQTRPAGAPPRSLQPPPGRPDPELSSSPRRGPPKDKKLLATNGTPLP

[28] = target: Transient receptor potential cation channel subfamily M member 6 (Homo sapiens) (UniProt Q9BX84); conditions: Compound concentration 1000.0 nM
[29] = target: Serine/threonine-protein kinase TNNI3K (Homo sapiens) (UniProt Q59H18); conditions: Compound concentration 1000.0 nM
Sequence of Serine/threonine-protein kinase TNNI3K (Homo sapiens) (Q59H18 whole entry): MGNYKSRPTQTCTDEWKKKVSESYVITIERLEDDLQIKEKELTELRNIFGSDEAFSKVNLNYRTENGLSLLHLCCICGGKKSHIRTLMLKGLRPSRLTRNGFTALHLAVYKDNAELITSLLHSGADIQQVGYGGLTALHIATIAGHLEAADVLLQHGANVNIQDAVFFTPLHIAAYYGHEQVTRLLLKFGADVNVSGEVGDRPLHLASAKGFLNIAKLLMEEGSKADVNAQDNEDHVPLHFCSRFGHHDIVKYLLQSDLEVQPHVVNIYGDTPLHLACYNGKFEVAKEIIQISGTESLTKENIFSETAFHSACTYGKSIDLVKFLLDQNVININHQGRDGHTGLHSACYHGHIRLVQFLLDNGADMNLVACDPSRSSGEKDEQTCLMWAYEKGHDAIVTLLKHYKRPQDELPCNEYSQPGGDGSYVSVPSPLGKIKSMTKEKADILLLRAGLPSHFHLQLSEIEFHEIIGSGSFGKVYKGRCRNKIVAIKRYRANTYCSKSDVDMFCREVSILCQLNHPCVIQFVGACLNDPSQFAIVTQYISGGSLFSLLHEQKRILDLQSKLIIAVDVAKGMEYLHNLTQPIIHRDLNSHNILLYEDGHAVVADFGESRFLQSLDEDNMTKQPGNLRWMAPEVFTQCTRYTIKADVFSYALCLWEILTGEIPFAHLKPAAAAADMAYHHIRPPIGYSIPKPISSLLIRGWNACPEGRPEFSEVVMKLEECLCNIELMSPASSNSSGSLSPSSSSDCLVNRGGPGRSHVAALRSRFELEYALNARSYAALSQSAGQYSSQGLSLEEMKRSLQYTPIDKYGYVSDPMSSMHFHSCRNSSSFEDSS

[30] = target: T1, 5-hydroxytryptamine receptor 1A (Homo sapiens, UniProt P08908); assay: GPCRScan assay: inhibition of 5-HT1A; set-up: radioligand conc. used [nm] 0.5 – 1.0, parental cells stable CHO; conditions: for pKi: read-out: Ki
T1 sequence (P08908 whole entry): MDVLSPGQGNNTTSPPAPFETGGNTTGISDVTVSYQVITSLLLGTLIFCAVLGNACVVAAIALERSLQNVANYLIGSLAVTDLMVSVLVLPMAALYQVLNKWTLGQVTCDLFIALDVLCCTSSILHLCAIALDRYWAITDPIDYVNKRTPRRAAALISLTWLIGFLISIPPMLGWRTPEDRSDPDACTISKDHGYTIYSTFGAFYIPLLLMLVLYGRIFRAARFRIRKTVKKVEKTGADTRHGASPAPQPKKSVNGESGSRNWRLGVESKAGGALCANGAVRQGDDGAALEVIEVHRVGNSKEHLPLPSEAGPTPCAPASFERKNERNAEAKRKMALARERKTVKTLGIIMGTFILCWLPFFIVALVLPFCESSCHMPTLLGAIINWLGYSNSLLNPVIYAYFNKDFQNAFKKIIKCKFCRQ

[31] = target: Muscarinic acetylcholine receptor M3 (Homo sapiens, UniProt P20309); conditions: Compound concentration 10.0 uM
[32] = target: Ephrin type-B receptor 6 (Homo sapiens) (UniProt O15197); conditions: Compound concentration 1000.0 nM
[33] = target: Mitogen-activated protein kinase kinase kinase kinase 5 (Homo sapiens) (UniProt Q9Y4K4); conditions: Compound concentration 1000.0 nM
Sequence of Mitogen-activated protein kinase kinase kinase kinase 5 (Homo sapiens) (Q9Y4K4 whole entry, looked up): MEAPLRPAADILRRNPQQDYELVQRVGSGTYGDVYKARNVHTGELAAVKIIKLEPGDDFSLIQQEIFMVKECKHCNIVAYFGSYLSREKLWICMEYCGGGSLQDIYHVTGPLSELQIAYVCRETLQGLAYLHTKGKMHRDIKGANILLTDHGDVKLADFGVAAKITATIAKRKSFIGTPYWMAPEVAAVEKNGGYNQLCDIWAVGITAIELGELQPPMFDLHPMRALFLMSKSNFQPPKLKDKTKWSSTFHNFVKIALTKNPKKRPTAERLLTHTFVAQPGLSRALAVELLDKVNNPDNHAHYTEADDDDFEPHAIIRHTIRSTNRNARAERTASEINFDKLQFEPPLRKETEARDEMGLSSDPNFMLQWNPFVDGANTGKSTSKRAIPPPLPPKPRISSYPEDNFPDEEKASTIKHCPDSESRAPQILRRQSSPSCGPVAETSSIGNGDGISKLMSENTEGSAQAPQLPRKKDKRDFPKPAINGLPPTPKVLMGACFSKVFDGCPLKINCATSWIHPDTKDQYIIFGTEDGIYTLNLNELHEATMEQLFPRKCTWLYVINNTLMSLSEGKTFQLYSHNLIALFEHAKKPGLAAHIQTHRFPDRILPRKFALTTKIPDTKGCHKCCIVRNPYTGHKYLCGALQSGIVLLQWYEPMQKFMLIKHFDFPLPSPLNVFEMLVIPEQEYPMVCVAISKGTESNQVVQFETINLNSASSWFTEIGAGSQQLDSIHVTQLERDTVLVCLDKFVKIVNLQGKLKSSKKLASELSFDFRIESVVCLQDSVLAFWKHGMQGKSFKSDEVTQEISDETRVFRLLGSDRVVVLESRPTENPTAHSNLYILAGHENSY

[34] = target: Serine/threonine-protein kinase 17A (Homo sapiens) (UniProt Q9UEE5); conditions: Compound concentration 1000.0 nM
[35] = target: Serine/threonine-protein kinase BRSK2 (Homo sapiens) (UniProt Q8IWQ3); conditions: Compound concentration 1000.0 nM
[36] = target: Dual specificity mitogen-activated protein kinase kinase 3 (Homo sapiens) (UniProt P46734); conditions: Compound concentration 1000.0 nM
[37] = target: Mitogen-activated protein kinase 14 (Homo sapiens) (UniProt Q16539); conditions: Compound concentration 1000.0 nM
[38] = target: MAP/microtubule affinity-regulating kinase 4 (Homo sapiens) (UniProt Q96L34); conditions: Compound concentration 1000.0 nM

Compound | residual activity [1] [%] | residual activity [2] [%] | residual activity [3] [%] | residual activity [4] [%] | residual activity [5] [%] | residual activity [6] [%] | residual activity [7] [%] | residual activity [8] [%] | residual activity [9] [%] | residual activity [10] [%] | residual activity [11] [%] | inhibition [12] [%] | residual activity [13] [%] | residual activity [14] [%] | residual activity [15] [%] | residual activity [16] [%] | pKi (D(3) dopamine receptor) | inhibition [17] [%] | residual activity [18] [%] | residual activity [19] [%] | also measured
CNCc1ccccc1-c1csc([C@@H](C)Nc2nc(C)nc3cc(OC)c(OC)cc23)c1 [BAY-293] | 100 | 71 | 87 | 80 | 72 | 100 | 96 | 59 | 100 | 100 | 86 | 26.9 | 87 | 92 | 96 | 100 | 6.03 | 12.1 | 100 | 55 | residual activity [20]: 68%; residual activity [21]: 100%; residual activity [22]: 100%; residual activity [23]: 98%; residual activity [24]: 88%; residual activity [25]: 100%; residual activity [26]: 57%; residual activity [27]: 87%; residual activity [28]: 91%; residual activity [29]: 100%; pKi [30]: 5.44; Ki ([30]; read-out: pKi (converted)): 3.35 µM; inhibition [31]: 56.5%; residual activity [32]: 98%; residual activity [33]: 100%; residual activity [34]: 100%; residual activity [35]: 100%; residual activity [36]: 80%; residual activity [37]: 87%; residual activity [38]: 100%
CNCc1ccccc1-c1csc([C@H](C)Nc2nc(C)nc3cc(OC)c(OC)cc23)c1 [BAY-294] | 95 | 76 | 100 | 97 | 97 | 98 | 100 | 100 | 100 | 100 | 100 | 64.4 | 100 | 100 | 100 | 100 | 6.06 | 18.2 | 100 | 74 | residual activity [20]: 76%; residual activity [21]: 100%; residual activity [22]: 100%; residual activity [23]: 100%; residual activity [24]: 100%; residual activity [25]: 89%; residual activity [26]: 51%; residual activity [27]: 89%; residual activity [28]: 100%; residual activity [29]: 100%; pKi [30]: 6.41; inhibition [31]: 48%; residual activity [32]: 87%; residual activity [33]: 100%; residual activity [34]: 100%; residual activity [35]: 100%; residual activity [36]: 98%; residual activity [37]: 100%; residual activity [38]: 100%
